Test results from patent publication US12624050B2, “Three fused ring derivative-containing salt or crystal form and pharmaceutical composition thereof” (Shanghai Hansoh Biomedical Co., Ltd., priority 2019, dated 2026).

Key:
MKN1 (E545K) = experiment: Proliferation inhibition of PI3Kα mutant cancer cells, Cell Titer-Glo, MKN1; assay type: cell-based; settings: Homo sapiens, MKN-1
Procedure: (§1) The proliferation inhibitory effect of the compounds of the examples on the PI3Kα mutant cancer cell lines (HCC1954, HGC-27 and MKN1) was detected by Cell Titer-Glo method. Cell lines were cultured in RPMI 1640 medium (Gibco #22400089) containing 10% FBS (Gibco #10091148) and 1% P/S (Hyclone #SV30010) under the condition of 37° C. and 5% CO2. The cells were collected before the experiment, and the cell density was adjusted after cell counting. The cells were seeded in a white 96-well plate (Corning #3610) at a density of 1000 to 10000 cells/well, and incubated in an incubator at 37° C. and 5% CO2 overnight. The prepared compound solutions of different concentrations and the corresponding solvent controls were added to the plate. The plate was again incubated in an incubator at 37° C. and 5% CO2 for 48 to 96 hours. Then the cell plate and its contents were equilibrated to room temperature. 20 to 100 μL of Cell Titer-Glo solution (Promega #G7573) was added to each well, and the plate was shaken and mixed well, then incubated at room temperature for 5 to 30 minutes in the dark. The chemiluminescence was measured by a SynergyH1 microplate reader from BioTek.
(§2) The percentage inhibition data of the compound-treated well was calculated from solvent control wells on the plate {% inhibition=100−(test compound value−solvent control value)×100}. IC50 values were calculated using GraphPad prism and using a four-parameter nonlinear logistic formula to fit the data of different concentrations and corresponding percent inhibition.

PI3Kδ = molecular target: T1, PI3Kδ (Homo sapiens, UniProt O00329); experiment: ADP-Glo Lipid Kinase Assay, PI3Kδ kinase activity; assay type: biochemical; settings: for Selectivity of PI3Kα vs PI3Kδ: ratio of IC50 values
T1 construct: purchased Carna #11-103
Procedure: (§3) In this experiment, ADP-Glo Lipid Kinase Assay (Promega #V9102) from Promega was used. The lipid kinases PI3Kα/β/γ/δ catalyzed the ATP-to-ADP reaction in the presence of the substrate PIP2:3PS and ATP. The lipid kinase activity was characterized by measuring the ADP content in the reaction, and the half inhibition concentrations IC50 of the compounds on PI3Kα/β/γ/δ kinase activity were obtained.
(§4) Kinase reactions were carried out in white 384-well plates (Perkin Elmer #6007299). 2 μL of the compound of various concentrations diluted with ddH2O containing 1% DMSO was added to each well, and 2 μL of ddH2O containing 1% DMSO was added to positive control wells. Then 2 μL of 0.1 to 2 nM PI3K kinase solution diluted with 5× kinase buffer (HEPES 250 mM, MgCl2 15 mM, NaCl 250 mM, BSA 0.05%) was added to each well, and 2 μL of 5× kinase buffer was added to the negative control wells. 4 μL of 50 μM substrate PIP2:3PS (Promega #V1701) prepared with 10× Dilution buffer and ddH2O was added to all wells. Finally, 2 μL of 50 to 100 μM ATP solution diluted with water was added to start the reaction. After the reaction was carried out at room temperature for 90 to 120 minutes, 10 µL of ADP-Glo Reagent (containing 10 mM MgCl2) was added to each well, and the reaction was carried out at room temperature for 60 minutes to eliminate excess adenosine triphosphate (ATP) in the reaction. Then 20 μL of Kinase Detection Reagent was added to each well. After the reaction was carried out for 20 minutes at room temperature in the dark, the chemiluminescence was measured by BioTek Synergy H1 microplate reader.
as §2, with “positive” for “solvent”, “wells (DMSO control wells) and negative control wells (no kinase added)” for “wells”, “inhibition=100−[(test” for “inhibition=100−(test”, “value−negative control value)]/(positive control value-negative” for “value−solvent”

HGC-27 (E542K) = experiment: Proliferation inhibition of PI3Kα mutant cancer cells, Cell Titer-Glo, HGC-27; assay type: cell-based; settings: Homo sapiens
Procedure: as §1, §2

HCC1954 (H1047R) = experiment: Proliferation inhibition of PI3Kα mutant cancer cells, Cell Titer-Glo, HCC1954; assay type: cell-based; settings: Homo sapiens
Procedure: as §1, §2

HCC1954 cell = experiment: In vivo efficacy test, HCC1954 tumor-bearing nude mice; design: species or system BALB/c nude mice; settings: oral, 10 mg/kg, once/day, 21 days (Example 22: 19 days)
Procedure: • a. A strain of HCC1954 cell was taken from the cell bank, recovered with RPMI-1640 medium (RPMI-1640+10% FBS+1% SP), plated in a cell culture flask (cell type, date, name of the experimenter and the like were labeled on the wall of the flask) and cultured in a CO2 incubator (the temperature was 37° C. and the CO2 concentration was 5% in the incubator). • b. Cells were passaged when they covered 80 to 90% of the bottom of the culture flask. After passage, the cells continued to be cultured in the CO2 incubator. This process was repeated until the number of cells was sufficient for the in vivo efficacy test. • c. The cultured cells were collected and counted with an automatic cell counter, and then resuspended with PBS and Matrigel Matrix according to the counting results to prepare a cell suspension (density 5×10^7/mL), which was placed in an ice box for use. 4.3.2 Cell Inoculation • a. The nude mice were labeled with disposable universal ear tags for rats and mice before inoculation. • b. During the inoculation, the cell suspension was mixed well. 0.1 to 1 mL of the cell suspension was drawn with a 1 mL syringe, air bubbles were removed, and then the syringe was placed on an ice pack for use. • c. The nude mouse was bound with the left hand. The position on the right side of the back close to the right shoulder of the nude mouse (inoculation site) was disinfected with 75% alcohol. Inoculation started after 30 seconds. • d. The test nude mice were successively inoculated (each mouse was inoculated with 0.1 mL of cell suspension). 4.3.3 Tumor Measurement, Grouping and Administration of Tumor-Bearing Mice • a. According to the tumor growth, the tumors was measured on 14 to 18 days after inoculation, and the tumor size was calculated. Calculation of tumor volume: tumor volume (mm^3)=length (mm)×width (mm)×width (mm)/2 • b. The tumor-bearing mice were grouped according to their body weight and tumor size by random grouping. • c. The test compounds were administered according to the grouping results (administration route: oral administration; administration dose: 10 mg/kg; administration volume: 10 mL/kg; administration frequency: once/day; administration cycle: 21 days; vehicle: 0.5% CMC/1% Tween 80). • d. Tumors were measured and weighed twice a week after the administration of test compounds began. • e. Animals were euthanized at the end of the experiment. • f. Data were processed by using softwares such as Excel. […] When the tumor regress, TGI (%)=[1−(average tumor volume of the treatment group at the end of the administration−average tumor volume of the treatment group at the beginning of the administration)/average tumor volume of the treatment group at the beginning of the administration]×100%.

PI3Kγ = molecular target: T2, PI3Kγ (Homo sapiens, UniProt P48736); experiment: ADP-Glo Lipid Kinase Assay, PI3Kγ kinase activity; assay type: biochemical; settings: for Selectivity of PI3Kα vs PI3Kγ: ratio of IC50 values
T2 construct: purchased Thermofisher #PV4786
Procedure: as §3, §4
as §2, with “positive” for “solvent”, “wells (DMSO control wells) and negative control wells (no kinase added)” for “wells”, “inhibition=100−[(test” for “inhibition=100−(test”, “value−negative control value)]/(positive control value-negative” for “value−solvent”

PI3Kβ = molecular target: T3, PI3Kβ (Homo sapiens, UniProt P42338); experiment: ADP-Glo Lipid Kinase Assay, PI3Kβ kinase activity; assay type: biochemical; settings: for Selectivity of PI3Kα vs PI3Kβ: ratio of IC50 values
T3 construct: purchased Carna #11-102
Procedure: as §3, §4
as §2, with “positive” for “solvent”, “wells (DMSO control wells) and negative control wells (no kinase added)” for “wells”, “inhibition=100−[(test” for “inhibition=100−(test”, “value−negative control value)]/(positive control value-negative” for “value−solvent”

T1 sequence (O00329 whole entry): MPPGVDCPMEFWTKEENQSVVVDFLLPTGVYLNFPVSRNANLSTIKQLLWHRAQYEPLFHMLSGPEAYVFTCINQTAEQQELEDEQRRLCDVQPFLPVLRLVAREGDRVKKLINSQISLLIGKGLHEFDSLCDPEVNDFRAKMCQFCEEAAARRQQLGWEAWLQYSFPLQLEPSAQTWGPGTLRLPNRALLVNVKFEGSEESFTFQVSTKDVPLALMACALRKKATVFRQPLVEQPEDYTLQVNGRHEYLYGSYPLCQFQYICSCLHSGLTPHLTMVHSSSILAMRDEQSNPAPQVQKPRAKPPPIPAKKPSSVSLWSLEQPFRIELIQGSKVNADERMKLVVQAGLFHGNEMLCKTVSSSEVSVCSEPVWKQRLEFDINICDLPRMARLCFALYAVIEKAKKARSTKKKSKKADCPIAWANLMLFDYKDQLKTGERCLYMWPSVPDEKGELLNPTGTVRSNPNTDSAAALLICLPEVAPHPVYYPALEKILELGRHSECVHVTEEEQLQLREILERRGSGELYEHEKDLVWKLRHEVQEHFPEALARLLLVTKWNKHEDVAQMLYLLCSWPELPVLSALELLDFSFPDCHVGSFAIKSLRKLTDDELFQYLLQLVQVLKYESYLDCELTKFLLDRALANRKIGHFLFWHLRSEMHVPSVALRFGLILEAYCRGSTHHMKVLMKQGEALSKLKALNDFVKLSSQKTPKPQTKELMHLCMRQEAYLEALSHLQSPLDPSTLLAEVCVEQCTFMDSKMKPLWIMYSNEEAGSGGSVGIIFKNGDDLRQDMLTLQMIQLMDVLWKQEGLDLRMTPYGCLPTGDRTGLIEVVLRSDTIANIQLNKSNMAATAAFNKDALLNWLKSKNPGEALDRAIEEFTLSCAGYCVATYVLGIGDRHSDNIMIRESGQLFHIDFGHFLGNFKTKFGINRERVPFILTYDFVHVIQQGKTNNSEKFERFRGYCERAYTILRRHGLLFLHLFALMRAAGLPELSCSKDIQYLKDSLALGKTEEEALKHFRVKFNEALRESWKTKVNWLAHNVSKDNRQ
T1 sequence (P27986 whole entry partner): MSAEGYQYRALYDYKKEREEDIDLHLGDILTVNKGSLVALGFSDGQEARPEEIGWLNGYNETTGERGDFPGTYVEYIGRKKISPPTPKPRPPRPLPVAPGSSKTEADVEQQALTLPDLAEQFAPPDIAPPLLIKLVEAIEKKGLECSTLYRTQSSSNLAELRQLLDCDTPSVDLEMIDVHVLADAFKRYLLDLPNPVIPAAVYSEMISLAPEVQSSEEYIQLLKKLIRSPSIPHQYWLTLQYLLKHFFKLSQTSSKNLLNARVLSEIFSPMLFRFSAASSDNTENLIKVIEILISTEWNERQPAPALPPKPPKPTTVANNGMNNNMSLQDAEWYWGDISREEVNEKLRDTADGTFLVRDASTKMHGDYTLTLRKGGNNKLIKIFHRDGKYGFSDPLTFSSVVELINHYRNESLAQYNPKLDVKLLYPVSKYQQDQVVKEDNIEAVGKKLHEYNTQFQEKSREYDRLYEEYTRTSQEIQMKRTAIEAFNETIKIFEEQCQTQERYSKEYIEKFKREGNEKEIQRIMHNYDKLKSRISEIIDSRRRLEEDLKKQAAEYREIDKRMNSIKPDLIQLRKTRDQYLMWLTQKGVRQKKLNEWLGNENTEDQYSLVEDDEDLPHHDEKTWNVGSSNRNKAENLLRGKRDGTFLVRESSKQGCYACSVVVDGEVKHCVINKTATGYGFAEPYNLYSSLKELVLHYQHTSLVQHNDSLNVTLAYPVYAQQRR
T2 sequence (P48736 whole entry): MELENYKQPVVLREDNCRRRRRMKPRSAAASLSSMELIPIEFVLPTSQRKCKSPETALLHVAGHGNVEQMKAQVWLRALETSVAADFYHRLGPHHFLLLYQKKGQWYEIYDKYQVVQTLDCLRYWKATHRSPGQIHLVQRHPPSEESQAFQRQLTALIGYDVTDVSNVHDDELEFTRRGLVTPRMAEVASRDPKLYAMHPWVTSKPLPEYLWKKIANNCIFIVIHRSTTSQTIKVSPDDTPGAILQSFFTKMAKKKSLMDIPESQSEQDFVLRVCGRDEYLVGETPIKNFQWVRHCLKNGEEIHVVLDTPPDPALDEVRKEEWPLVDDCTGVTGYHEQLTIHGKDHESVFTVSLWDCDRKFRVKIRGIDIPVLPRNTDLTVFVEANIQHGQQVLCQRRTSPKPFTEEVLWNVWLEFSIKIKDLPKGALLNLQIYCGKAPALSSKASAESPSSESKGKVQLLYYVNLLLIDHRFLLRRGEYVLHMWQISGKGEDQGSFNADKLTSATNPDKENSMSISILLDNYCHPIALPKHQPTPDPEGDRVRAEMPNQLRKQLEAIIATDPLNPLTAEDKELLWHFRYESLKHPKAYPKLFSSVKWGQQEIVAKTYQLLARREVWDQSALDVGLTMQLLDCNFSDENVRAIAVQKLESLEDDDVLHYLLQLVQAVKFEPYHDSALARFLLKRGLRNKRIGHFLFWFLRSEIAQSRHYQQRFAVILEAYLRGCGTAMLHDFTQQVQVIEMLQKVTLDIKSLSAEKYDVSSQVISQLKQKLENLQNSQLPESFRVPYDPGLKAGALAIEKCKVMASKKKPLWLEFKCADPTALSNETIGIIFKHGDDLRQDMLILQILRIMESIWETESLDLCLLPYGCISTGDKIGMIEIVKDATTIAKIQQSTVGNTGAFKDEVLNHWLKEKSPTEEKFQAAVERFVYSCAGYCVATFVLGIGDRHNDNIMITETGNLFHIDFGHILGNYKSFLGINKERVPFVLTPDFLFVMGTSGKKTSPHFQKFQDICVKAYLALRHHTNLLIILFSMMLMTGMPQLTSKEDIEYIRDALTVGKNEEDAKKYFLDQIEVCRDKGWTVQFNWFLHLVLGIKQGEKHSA
T3 sequence (P42338 whole entry): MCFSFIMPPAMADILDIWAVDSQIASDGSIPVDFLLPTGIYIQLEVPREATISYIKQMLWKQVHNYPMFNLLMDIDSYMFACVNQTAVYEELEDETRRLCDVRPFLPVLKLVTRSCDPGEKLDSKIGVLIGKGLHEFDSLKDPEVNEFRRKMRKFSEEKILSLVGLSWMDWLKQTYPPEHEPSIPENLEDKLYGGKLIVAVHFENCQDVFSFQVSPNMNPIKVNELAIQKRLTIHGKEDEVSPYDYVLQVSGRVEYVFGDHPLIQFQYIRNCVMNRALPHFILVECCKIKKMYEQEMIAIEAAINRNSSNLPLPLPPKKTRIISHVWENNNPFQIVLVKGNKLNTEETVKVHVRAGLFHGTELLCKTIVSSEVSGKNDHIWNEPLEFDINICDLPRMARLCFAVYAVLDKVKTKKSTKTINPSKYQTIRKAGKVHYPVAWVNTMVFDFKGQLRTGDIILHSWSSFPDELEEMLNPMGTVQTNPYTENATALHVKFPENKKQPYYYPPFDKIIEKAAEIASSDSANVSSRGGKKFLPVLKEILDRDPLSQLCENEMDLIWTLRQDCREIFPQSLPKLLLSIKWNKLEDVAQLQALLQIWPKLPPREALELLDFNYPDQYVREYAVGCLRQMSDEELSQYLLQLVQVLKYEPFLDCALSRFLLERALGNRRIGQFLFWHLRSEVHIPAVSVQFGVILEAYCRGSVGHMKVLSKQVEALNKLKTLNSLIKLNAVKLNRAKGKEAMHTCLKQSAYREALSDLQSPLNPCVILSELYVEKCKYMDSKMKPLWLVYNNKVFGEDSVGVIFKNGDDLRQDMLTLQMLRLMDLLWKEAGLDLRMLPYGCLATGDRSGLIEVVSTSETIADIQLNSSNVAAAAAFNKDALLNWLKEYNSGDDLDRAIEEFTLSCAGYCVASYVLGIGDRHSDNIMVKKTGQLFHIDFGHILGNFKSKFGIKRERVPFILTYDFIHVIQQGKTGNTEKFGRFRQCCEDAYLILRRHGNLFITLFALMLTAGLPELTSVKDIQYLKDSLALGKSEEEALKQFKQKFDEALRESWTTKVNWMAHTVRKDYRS
T3 sequence (P27986 whole entry partner): as the sequence (P27986 whole entry partner) above

SMILES	IC50 (MKN1 (E545K)) [nM]	Selectivity of PI3Kα vs PI3Kδ (PI3Kδ)	IC50 (HGC-27 (E542K)) [nM]	IC50 (HCC1954 (H1047R)) [nM]	Tumor growth inhibition rate (HCC1954 cell) [%]	Selectivity of PI3Kα vs PI3Kγ (PI3Kγ)	Selectivity of PI3Kα vs PI3Kβ (PI3Kβ)	IC50 (PI3Kδ) [nM]	IC50 (PI3Kγ) [nM]	IC50 (PI3Kβ) [nM]
C[C@H](Nc1ccc2c(c1)OCCn1cc(N3C(=O)SC[C@H]3C(F)F)nc1-2)C(N)=O [Example 22, (S)-2-((2-((R)-4-(difluoromethyl)-2-oxothiazolidin-3-yl)-5,6-dihydrobenzo[f]imidazo[1,2-d][1,4]oxazepin-9-yl)amino)propionamide]	60	245	40	21	132	450	840	–	–	–
C[C@H](Nc1ccc2c(c1)SCCn1cc(N3C(=O)OC[C@H]3C(F)F)nc1-2)C(N)=O [Example 62, (S)-2-((2-((S)-4-(difluoromethyl)-2-oxooxazolidin-3-yl)-5,6-dihydrobenzo[f]imidazo[1,2-d][1,4]thiazepin-9-yl)amino)propionamide]	25	280	22	13	147	500	1020	28	50	102
C[C@H](Nc1ccc2c(c1)N(C)CCn1cc(N3C(=O)OC[C@H]3C(F)F)nc1-2)C(N)=O [Example 56, (S)-2-((2-((S)-4-(difluoromethyl)-2-oxooxazolidin-3-yl)-7-methyl-6,7-dihydro-5H-benzo[f]imidazo[1,2-d][1,4]diazoheptin-9-yl)amino)propionamide]	104	98	110	50	122	180	336	49	90	168
